Source: patent US12357603B2, “Acyl sulfonamides for treating cancer” (Bayer Aktiengesellschaft, priority 2019, dated 2025)
Like-named read-outs stand apart in the source and are kept apart here.

Experiments:
[1] = molecular target: Recombinant human GST-tagged Kat6b protein (431-end); experiment: Kat6b activity assay (TR-FRET, acetylation of biotinylated Histone-H4-derived peptide); format: biochemical; conditions: 30 mins at 22° C., read-out: KAT6B activity assay IC50 [mol/l] (arithmetic mean)
[2] = test system: LNCAP cells; experiment: Proliferation assay LNCAP (Alamar Blue, 144 h); format: cell-based; conditions: Homo sapiens, prostate carcinoma, 10 nM R1881, read-out: proliferation assays
Protocol: (§1) Assessment of the Anti-Proliferative Effect of Compounds in Different Cell Lines
(§2) To determine further cancer indications that respond to treatment with KAT6A or KAT6B3 inhibitors various cell lines carrying a KAT6A and/or KAT6B3 focal amplification or high KAT6A and/or KAT6B3 protein expression were used for proliferation assays with selected compounds.
(§3) 24 hours later, cells were treated with compounds (stock solution, 10 mM in DMSO) using the HP D300 Digital Dispenser in a concentration range of 2.0×10E-5 M to 2.0×10E-9 M in a single-dot curve with 9 dilutions and a DMSO concentration of 0.2%. Each sample was prepared as triplicate and rim wells were excluded. Plates were incubated at 37° C. and 5% CO2 for 144 h. Cell viability was measured by adding 10 μL of Alamar Blue Reagent (Invitrogen #DAL 1100) and plates were incubated for 2 h at 37° C. and 5% CO2. Fluorescence was measured at 590 nm wavelength with a Tecan Spark or Victor X3 MTP-Reader (PerkinElmer).

[3] = test system: DMS 53 cells; experiment: Proliferation assay DMS 53 (Alamar Blue, 144 h); format: cell-based; conditions: Homo sapiens, DMS53, small cell lung cancer, read-out: proliferation assays
Protocol: as §1, §2, §3

[4] = test system: COLO 684 cells; experiment: Proliferation assay COLO 684 (Alamar Blue, 144 h); format: cell-based; conditions: Homo sapiens, COLO684, uterus adenocarcinoma, read-out: proliferation assays
Protocol: as §1, §2, §3

[5] = test system: JMSU-1 cells; experiment: Proliferation assay JMSU-1 (Alamar Blue, 144 h); format: cell-based; conditions: JMSU1, bladder carcinoma, read-out: proliferation assays
Protocol: as §1, §2, §3

[6] = test system: T47D cells; experiment: Proliferation assay T47D (Alamar Blue, 144 h); format: cell-based; conditions: Homo sapiens, breast ductal carcinoma, read-out: proliferation assays
Protocol: as §1, §2, §3

[7] = test system: EFM-19 cells; experiment: Proliferation assay EFM-19 (Alamar Blue, 144 h); format: cell-based; conditions: Homo sapiens, EFM19, breast carcinoma, read-out: proliferation assays
Protocol: as §1, §2, §3

[8] = test system: ZR-75-1 cells; experiment: Proliferation assay ZR-75-1 (Alamar Blue, 144 h); format: cell-based; conditions: arithmetic mean, read-out: ZR75-1 proliferation assay, EC50 [M] (arithmetic mean)
Summary of the method: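 Cells seeded at 3000/well in RPMI 1640 with 2.5% FBS and treated 24 h later across 2.0×10E-5 to 2.0×10E-9 M (9 dilutions, 0.2% DMSO, triplicate). After 144 h at 37 °C, 5% CO2, viability read by Alamar Blue fluorescence at 590 nm following 2 h reagent incubation.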

[9] = test system: MDA-MB-436 cells; experiment: Proliferation assay MDA-MB-436, negative control cell line (Alamar Blue, 144 h); format: cell-based; conditions: arithmetic mean
Summary of the method: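 MDA-MB-436 cells (3000/well, DMEM/Ham's F12 with 2.5% FBS) treated 24 h after plating with compounds at 2.0×10E-5 to 2.0×10E-9 M (9 dilutions, 0.2% DMSO), triplicates, 144 h at 37 °C, 5% CO2. Viability by Alamar Blue, 2 h, fluorescence at 590 nm.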

[10] = test system: DMS 114 cells; experiment: Proliferation assay DMS 114 (Alamar Blue, 144 h); format: cell-based; conditions: Homo sapiens, DMS114, small cell lung cancer, read-out: proliferation assays
Protocol: as §1, §2, §3

[11] = molecular target: Recombinant human His-tagged Kat6a protein (amino acids 194-810) (Homo sapiens (Human), UniProt Q92794); experiment: Kat6a activity assay (TR-FRET, acetylation of biotinylated Histone-H4-derived peptide); format: biochemical; conditions: 60 mins at 22° C., read-out: KAT6A-DPF/HAT domain IC50 [mol/l] (arithmetic mean)
Summary of the method: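 Sf9-expressed human His-Kat6a (aa 194-810) incubated 60 min at 22 °C with compounds (0.01-20 μM) in Tris pH 8 buffer containing 220 nM biotinylated H4 peptide (aa 1-24) and 600 nM acetyl-CoA. Acetyl-K8 detected by TR-FRET (665/620 nm ratio); IC50 by four-parameter fit versus DMSO controls.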

[12] = test system: CAMA-1 cells; experiment: Proliferation assay CAMA-1 (Alamar Blue, 144 h); format: cell-based; conditions: Homo sapiens, CAMA1, breast adenocarcinoma, read-out: proliferation assays
Protocol: as §1, §2, §3

[13] = test system: LCLC-97TM1 cells; experiment: Proliferation assay LCLC-97TM1 (Alamar Blue, 144 h); format: cell-based; conditions: Homo sapiens, LCLC97TM1, large cell lung carcinoma, read-out: proliferation assays
Protocol: as §1, §2, §3

[14] = test system: THP-1 cells; experiment: Proliferation assay THP-1 (Alamar Blue, 144 h); format: cell-based; conditions: Homo sapiens, THP1, acute monocytic leukemia, read-out: proliferation assays
Protocol: as §1, §2, §3

[15] = test system: ESR1 transcription (luciferase signal in MVLN cells); experiment: Repression of ESR1 transcription, luciferase reporter in MVLN cells; format: cell-based; conditions: inhibition of luciferase signal in MVLN cells, arithmetic mean
Summary of the method: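 MVLN cells (constitutive ER, stably carrying a Vitellogenin A2 hormone-responsive element–luciferase reporter) treated in duplicate; luciferase read after 24 h. Cell density checked by Alamar Blue fluorescence (530/590 nm) after 2 h to exclude cell-loss effects.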

Chain of Recombinant human His-tagged Kat6a protein (amino acids 194-810) (Q92794 194-810): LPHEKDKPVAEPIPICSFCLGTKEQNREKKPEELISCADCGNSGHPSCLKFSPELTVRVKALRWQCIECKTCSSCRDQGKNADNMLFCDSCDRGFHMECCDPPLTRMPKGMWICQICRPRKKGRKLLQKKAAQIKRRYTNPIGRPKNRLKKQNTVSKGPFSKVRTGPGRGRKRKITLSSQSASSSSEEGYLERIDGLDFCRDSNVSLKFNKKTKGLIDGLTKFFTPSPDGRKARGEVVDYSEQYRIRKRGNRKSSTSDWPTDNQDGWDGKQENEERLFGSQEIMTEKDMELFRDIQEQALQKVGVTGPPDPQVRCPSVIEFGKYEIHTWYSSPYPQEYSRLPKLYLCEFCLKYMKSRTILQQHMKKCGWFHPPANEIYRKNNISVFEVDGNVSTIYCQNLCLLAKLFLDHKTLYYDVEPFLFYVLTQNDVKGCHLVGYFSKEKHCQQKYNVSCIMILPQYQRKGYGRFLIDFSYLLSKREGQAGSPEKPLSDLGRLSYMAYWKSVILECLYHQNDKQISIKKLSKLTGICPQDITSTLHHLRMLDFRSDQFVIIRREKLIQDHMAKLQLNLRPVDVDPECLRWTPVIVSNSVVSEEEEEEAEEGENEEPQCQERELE

Row | SMILES | IC50 [1] | EC50 [2] | EC50 [3] | EC50 [4] | EC50 [5] | EC50 [6] | EC50 [7] | EC50 [8] | EC50 [9] | EC50 [10] | IC50 [11] | EC50 [12] | EC50 [13] | EC50 [14] | IC50 [15] | EC50 ([8]; Homo sapiens, ZR-75-1, 144 h) | EC50 ([9]; Homo sapiens, MDA-MB-436, 144 h) | IC50 ([15]; Homo sapiens, MVLN)
1 | CCOc1ccccc1S(=O)(=O)NC(=O)c1cc2ccc(N(C)C)cc2o1 [Example 19, 6-(Dimethylamino)-N-(2-ethoxybenzene-1-sulfonyl)-1-benzofuran-2-carboxamide] | 66.9 nM | 1630 nM | 130 nM | 156 nM | 70.6 nM | 170 nM | 105 nM | 5.96e-08 M | > 20000 nM | 136 nM | 84.6 nM | 268 nM | 447 nM | 95.8 nM | 42.2 nM | – | – | –
2 | CCCOc1ccccc1S(=O)(=O)NC(=O)c1cc2ccc(N(C)C)cc2o1 [Example 23, 6-(Dimethylamino)-N-(2-propoxybenzene-1-sulfonyl)-1-benzofuran-2-carboxamide] | 99.2 nM | > 20000 nM | 367 nM | 92.9 nM | – | 197 nM | 155 nM | – | – | 205 nM | 79.3 nM | 415 nM | 157 nM | – | – | 2.34e-08 M | > 20000 nM | 98 nM
